# From the supplement of paper PMC13380429
# Columns and labels:
# Settings in all cases: 72 h
# [1] = tested on: U2OS; assay: relative viability EC50 (midpoint between 100% and the lowest measured viability); higher = less toxic
# [2] = tested on: Vero E6; assay: as above
# [3] = tested on: Calu-3; assay: as above
# [4] = tested on: Caco-2; assay: as above
# [5] = tested on: U2OS; assay: drug sensitivity score (DSS) for viability; higher = more toxic; extreme values may be limits of the assay
# [6] = tested on: Vero E6; assay: as above
# [7] = tested on: Calu-3; assay: as above
# [8] = tested on: Caco-2; assay: as above
# [9] = tested on: U2OS; assay: cell viability relative to DMSO; higher = less toxic
# [10] = tested on: Vero E6; assay: as above
# [11] = tested on: Calu-3; assay: as above
# [12] = tested on: Caco-2; assay: as above
# [13] = tested on: HepG2; assay: drug sensitivity score (DSS) for viability; higher = more toxic; extreme values may be limits of the assay
# [14] = tested on: HepG2; assay: cell viability relative to DMSO; higher = less toxic
# [15] = tested on: HepG2; assay: relative viability EC50 (midpoint between 100% and the lowest measured viability); higher = less toxic
SMILES,relative viability EC50 [1] [µM],relative viability EC50 [2] [µM],relative viability EC50 [3] [µM],relative viability EC50 [4] [µM],drug sensitivity score [5],drug sensitivity score [6],drug sensitivity score [7],drug sensitivity score [8],cell viability ([9]; 1 nM) [%],cell viability ([9]; 10 nM) [%],cell viability ([9]; 100 nM) [%],cell viability ([9]; 1000 nM) [%],cell viability ([9]; 10000 nM) [%],cell viability ([10]; 1 nM) [%],cell viability ([10]; 10 nM) [%],cell viability ([10]; 100 nM) [%],cell viability ([10]; 1000 nM) [%],cell viability ([10]; 10000 nM) [%],cell viability ([11]; 1 nM) [%],cell viability ([11]; 10 nM) [%],cell viability ([11]; 100 nM) [%],cell viability ([11]; 1000 nM) [%],cell viability ([11]; 10000 nM) [%],cell viability ([12]; 1 nM) [%],cell viability ([12]; 10 nM) [%],cell viability ([12]; 100 nM) [%],cell viability ([12]; 1000 nM) [%],cell viability ([12]; 10000 nM) [%],drug sensitivity score [13],cell viability ([14]; 1 nM) [%],cell viability ([14]; 10 nM) [%],cell viability ([14]; 100 nM) [%],cell viability ([14]; 1000 nM) [%],cell viability ([14]; 10000 nM) [%],relative viability EC50 [15] [µM]
CC(=O)NC1N=C(c2ccccc2)c2ccccc2NC1=O (stereo not given),> 10,> 10,> 10,> 10,0,0,0,0,101,94.6,95.5,95.3,96.9,98.5,96.5,99,93.7,108,112,101,101,101,95.1,103,97.7,93.9,101,103,,,,,,,
CCCOc1ccc(Br)cc1-c1cc(-c2ccc(Cl)cc2)[nH]c1-c1ccncc1,> 10,> 10,> 10,> 10,0,0.4,0,0.2,104,106,104,97.5,98.6,95.6,102,99.7,98,85.7,99.6,96.3,103,94.2,103,95.3,95.3,93.6,100,84.8,1.5,104,97.7,96.1,101,65.9,
C[C@H](NC(=O)[C@@H](Cc1c[nH]c2ccccc12)NC(=O)[C@@H](N)Cc1c[nH]cn1)C(=O)N[C@@H](Cc1c[nH]c2ccccc12)C(=O)N[C@H](Cc1ccccc1)C(=O)N[C@@H](CCCCN)C(N)=O,,> 10,> 10,> 10,,0,0,0,,,,,,108,100,99.1,100,102,94.6,109,107,107,99.1,92,97,98.7,99.6,110,,,,,,,
c1ccc(CNCc2ccc(CN3CCCNCCNCCCNCC3)cc2)nc1 [AMD-3465],> 10,,> 10,> 10,0,,0,0,102,99.3,101,99,103,,,,,,102,97.5,94.1,101,115,105,100,102,100,96.2,0,102,101,101,103,97.3,> 10
COc1cc2ncnc(Nc3cccc(Cl)c3F)c2cc1OC(=O)N1CCN(C)C[C@H]1C [AZD3759],> 10,,0.442,> 10,0,9.3,10.6,1.1,96.8,101,95.6,95.6,92.8,94.7,90.3,81.8,60.8,51.6,86.5,93.6,93.1,48.4,32.2,94.4,91.1,91.2,90.1,81.9,0,101,86.6,104,95.8,101,> 10
CN1CCC(Nc2ncc3ncnc(Nc4ccc(F)c(Cl)c4)c3n2)CC1 [BIBX-1382],> 10,0.634,1.21,,0.4,8.4,7.6,4.4,99.4,104,95.9,98.9,83.8,104,104,90.1,61.7,36.2,101,115,95.8,70.2,27.4,99,104,85.4,81.4,63.3,2.1,102,93.6,98.8,95.8,68.3,
CC(C)C[C@@H](NC(=O)[C@H](Cc1ccccc1)NC(=O)CNC(=O)[C@@H](C)NC(=O)[C@@H](N)Cc1ccc(O)cc1)C(=O)O [BW-180C],> 10,,> 10,> 10,0,,0,0,99.4,97.8,104,104,99.1,,,,,,97.6,94.5,91.1,100,89.4,113,96.9,98.6,102,101,0,105,98.4,99.4,102,100,> 10
O[C@H]1CC[C@H](Nc2ncc3nc(Nc4c(F)cc(F)cc4F)n([C@H]4CCOC4)c3n2)CC1 [CC-930],> 10,,> 10,> 10,0,2,1.6,0.4,97.3,104,95,96.7,91.1,98.5,97,98.3,93.7,73.4,101,100,104,87.5,81.7,99.1,102,102,96.7,86.1,0,104,102,93.5,97.1,89.6,> 10
